# What was measured:
# TGase [1] = experiment: TGase expression and level in SH-SY5Y cells and cell fractions (immunoblot); assay type: cell-based, human
# Method: To induce differentiation, human SH-SY5Y cells were cultured in phenol red-free, low serum media with 20 μM all-trans-retinoic acid (RA; Sigma) every other day for 6 days. When assaying cell viability, the cells were plated in 96-well dishes at a seeding density of approximately 5×10^3 cells per well, differentiated with 20 μM RA, and then treated with either media alone, 25 μM monodansyl cadaverine (MDC), β-amyloid1-42 (2.5, 5, and 10 μM) (HPLC-purified from American Peptide, Sunnyvale, Calif.), or with 25 μM MDC and different concentrations of β-amyloid1-42. Typically, β-amyloid1-42 was reconstituted in […] and then further diluted into cell culture media, using conditions that have been reported to give rise primarily to β-amyloid oligomers and large aggregates rather than fibrils (Dahlgren et al., J. Biol. Chem. 277:32046-32053 (2002); Stine et al., J. Biol. Chem. 278:11612-11622 (2003), which are hereby incorporated by reference in their entirety). However, in some cases, β-amyloid1-42 was first dissolved in 100% hexafluoroisopropanolol to ensure the elimination of any preexisting aggregates ((Dahlgren et al., J. Biol. Chem. 277:32046-32053 (2002); Stine et al., J. Biol. Chem. 278:11612-11622 (2003), which are hereby incorporated by reference in their entirety) and then this solvent was removed by evaporation prior to reconstituting the peptide in Me2SO. […] Values for untreated controls were set at 100% viability and each treatment was assessed as a percentage of the control values (+/-SD). Each treatment was performed in triplicate and evaluated by using a one-way analysis of variation (ANOVA) with Turkey's post hoc analysis to determine differences between the groups with the a value set at 0.05. SH-SY5Y cells, treated with and without β-amyloid1-42 for 48 hours, were lysed by freeze/thawing using liquid nitrogen in a 0.25 M sucrose solution containing 1 mM dithiothreitol, 1 μg/ml aprotinin, 1 μg/ml leupeptin and 100 μM phenylmethylsulfonyl fluoride. […]
# guinea pig liver TGase = biological target: T1, guinea pig liver TGase (Cavia cutleri, UniProt P08587); experiment: In vitro transamidation (cross-linking) of β-amyloid1-42 by TGase, immunoblot; assay type: biochemical
# T1 construct: 0.1 μg of guinea pig liver TGase (Sigma); purchased Sigma; host or cells: guinea pig liver
# T1 sequence (P08587 2-690): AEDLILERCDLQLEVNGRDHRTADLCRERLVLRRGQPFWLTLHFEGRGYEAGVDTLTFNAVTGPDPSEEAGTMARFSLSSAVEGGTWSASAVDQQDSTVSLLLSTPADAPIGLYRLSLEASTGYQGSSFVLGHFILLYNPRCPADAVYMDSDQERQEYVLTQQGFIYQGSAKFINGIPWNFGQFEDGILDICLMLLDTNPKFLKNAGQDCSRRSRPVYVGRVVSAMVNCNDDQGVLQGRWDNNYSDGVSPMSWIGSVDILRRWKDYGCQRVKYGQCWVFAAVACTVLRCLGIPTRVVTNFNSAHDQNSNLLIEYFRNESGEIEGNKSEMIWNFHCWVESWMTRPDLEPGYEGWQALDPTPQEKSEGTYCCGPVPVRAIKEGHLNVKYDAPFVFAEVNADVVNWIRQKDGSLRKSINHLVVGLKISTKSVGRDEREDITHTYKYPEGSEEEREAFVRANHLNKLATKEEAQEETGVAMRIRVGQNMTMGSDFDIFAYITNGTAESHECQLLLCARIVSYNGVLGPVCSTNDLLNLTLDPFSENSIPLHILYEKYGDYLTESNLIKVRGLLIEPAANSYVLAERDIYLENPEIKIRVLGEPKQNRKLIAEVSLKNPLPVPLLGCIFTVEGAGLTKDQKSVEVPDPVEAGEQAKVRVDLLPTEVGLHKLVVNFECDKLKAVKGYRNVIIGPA
# Method: FIGS. 11A-B illustrate examination of the cross-linking of β-amyloid by TGase.
# The in vitro transamidation reactions were performed with one or all of the following: 1 μg of β-amyloid1-42, 0.1 μg of guinea pig liver TGase (Sigma), 500 μM CaCl2, and/or 50 μM MDC. Each reaction was performed in 50 mM Tris-HCl, pH 7.2, and incubated for 60 minutes at 37° C. The reactions were stopped by the addition of an equal volume of 20% SDS and 10 μl of Laemmeli's sample buffer and immediately boiled for 20 minutes to break up any non-covalent aggregation of β-amyloidi1-42. SDS-PAGE was performed on the samples, followed by blotting onto nitrocellulose membranes (Amersham). The membranes were immunoblotted with anti-β-amyloid antibody.
# caspase-3 = experiment: Caspase activation immunoblot in SH-SY5Y cells; assay type: cell-based, human
# Description: FIGS. 6A-B depict characterization of β-amyloid1-42. […] The β-amyloid was either directly reconstituted in Me2SO or was pre-treated with hexafluoroisopropanol (HFIP) and dessicated prior to reconstitution in Me2SO. […] Activated caspase-3 was detected using a rabbit polyclonal antibody from Cell Signaling (Danvers, Mass.).
# FIGS. 9A-B show changes in transglutaminase activity during β-amyloid-induced apoptosis. […] Experimental conditions in FIG. 9B were similar to those described in FIG. 9A, except cells were treated with H2O2 rather than BA for 24 hours.
# SH-SY5Y cells = experiment: Nuclear condensation or blebbing apoptosis assay; assay type: cell-based, human; conditions: 5 μM β-amyloid1-42, 48 hours; compared to control cells
# Description: Construction of the pcDNA3 Myc-tagged vector used herein has been described in Tu et al., J. Biol. Chem. 278:49293-49300 (2003), which is hereby incorporated by reference in its entirety. Insertion of the TGase cDNA into the vector was accomplished by performing BamHI and EcoRI restriction-site digestion of the previously generated pTRE TGase (wild-type) vector (Antonyak et al., J. Biol. Chem. 276:33582-33587 (2001), which is hereby incorporated by reference in its entirety) to excise the cDNA encoding wild-type TGase, followed by subcloning it into the pcDNA3 Myc-tagged vector using T4 DNA ligase (Invitrogen, Carlsbad, Calif.). The pcDNA3-Myc-TGase vector was used to generate the transamidation-defective (C277V) mutant with the Quikchange site-directed mutagenesis kit (Stratagene, La Jolla, Calif.). Each TGase construct was sequenced to confirm the presence or absence of the mutation. […]
# Immunofluorescence was also performed 48 hours after transient transfections with TGase constructs. […] Cells expressing the various TGase constructs were counted from three separate experiments (over 100 cells from each slide were scored) after β-amyloid1-42 treatment and the apoptotic rate was assessed relative to the percentage of apoptosis for untreated (transfected) cells. […]
# TGase [2] = experiment: In vivo (cellular) transamidation assay with 5-(biotin-amido)-pentylamine; assay type: cell-based, human
# Method: The in vivo transamidation assays were performed as previously described in Antonyak et al., J. Biol. Chem. 279:41461-41467 (2004), which is hereby incorporated by reference in its entirety. […] The membranes were then incubated with horseradish-peroxidase-conjugated streptavidin (2 mg/ml; Pierce Inc., Rockford, Ill.) (diluted 1:2000) in BBST for 2 hours at room temperature, followed by washing (three times) for 20 minutes with BBST.
# [3] = test system: RA-differentiated SH-SY5Y cells; assay type: cell-based
# Method: To induce differentiation, human SH-SY5Y cells were cultured in phenol red-free, low serum media with 20 μM all-trans-retinoic acid (RA; Sigma) every other day for 6 days. When assaying cell viability, the cells were plated in 96-well dishes at a seeding density of approximately 5×10^3 cells per well, differentiated with 20 μM RA, and then treated with either media alone, 25 μM monodansyl cadaverine (MDC), β-amyloid1-42 (2.5, 5, and 10 μM) (HPLC-purified from American Peptide, Sunnyvale, Calif.), or with 25 μM MDC and different concentrations of β-amyloid1-42. Typically, β-amyloid1-42 was reconstituted in […] and then further diluted into cell culture media, using conditions that have been reported to give rise primarily to β-amyloid oligomers and large aggregates rather than fibrils (Dahlgren et al., J. Biol. Chem. 277:32046-32053 (2002); Stine et al., J. Biol. Chem. 278:11612-11622 (2003), which are hereby incorporated by reference in their entirety). However, in some cases, β-amyloid1-42 was first dissolved in 100% hexafluoroisopropanolol to ensure the elimination of any preexisting aggregates ((Dahlgren et al., J. Biol. Chem. 277:32046-32053 (2002); Stine et al., J. Biol. Chem. 278:11612-11622 (2003), which are hereby incorporated by reference in their entirety) and then this solvent was removed by evaporation prior to reconstituting the peptide in Me2SO. Cells were incubated with the reconstituted β-amyloid1-42 for 48 hours and cell viability was then assayed by the reduction of 3-(4,5-dimethylthiazole-2-yl)-2,5-diphenyltetrazolium bromide (MTT), as previously described in Miller et al., Brain Res. 963:43-56 (2003), which is hereby incorporated by reference in its entirety. The effects of H2O2 (10-30 μM) on cell viability were assayed in a similar manner (Tamagno et al., Exp Neurol 180:144-155 (2003), which is hereby incorporated by reference in its entirety). Values for untreated controls were set at 100% viability and each treatment was assessed as a percentage of the control values (+/−SD). Each treatment was performed in triplicate and evaluated by using a one-way analysis of variation (ANOVA) with Turkey's post hoc analysis to determine differences between the groups with the a value set at 0.05.
# c-Jun kinase (JNK) = c-Jun kinase (JNK) activity in β-amyloid-treated cells; assay type: cell-based, human; conditions: β-amyloid1-42-treated cells
# [4] = 2.5-10 μM β-amyloid1-42, 48 hours
# [5] = H2O2 20 μM, 24 hours, RA-differentiated SH-SY5Y
compound,measurement,setting,value
"CC1=C(/C=C/C(C)=C/C=C/C(C)=C/C(=O)O)C(C)(C)CCC1 [RA, all-trans-retinoic acid]",TGase expression,"TGase [1]; 20 μM RA, SH-SY5Y in low serum media",significant up-regulation
β-amyloid1-42: most abundant and naturally occurring form of β-amyloid; HPLC-purified from American Peptide,transamidation substrate for TGase in vitro,guinea pig liver TGase; Ca2+ levels below 1 mM,effective transamidation substrate
same,apoptotic response read out by caspase-3 activation,"caspase-3; oligomeric β-amyloid1-42, 37° C.",induced an apoptotic response
same,levels of TGase in the membrane/particulate fractions,TGase [1]; [4],dramatically increased
same,TGase expression,"TGase [1]; β-amyloid1-42 48 hours, absence or presence of RA",no effect
same,percentage of cells undergoing apoptosis,SH-SY5Y cells,increased
same,production of BPA conjugates (transamidation activity) in the membrane/particulate fractions,TGase [2]; [4],marked enhancement
"OO [H2O2, hydrogen peroxide]",reduction of cell viability,[3]; [5],30-40%
same,caspase activation,"caspase-3; 30 μM H2O2, 24 hours, RA-differentiated SH-SY5Y",resulted in caspase activation
same,cytosolic transamidation activity,"TGase [2]; H2O2, 24 hours",significant increase
"CN(C)c1cccc2c(S(=O)(=O)NCCCCCN)cccc12 [MDC, monodansyl cadaverine]","difference in cell viability in the presence or absence of MDC, 5 μM BA","[3]; 25 μM MDC, 5 μM BA, 48 hours, p=0.027",significant difference
same,"difference in cell viability in the presence or absence of MDC, 10 μM BA","[3]; 25 μM MDC, 10 μM BA, 48 hours, p=0.022",significant difference
same,effect of MDC on H2O2-induced cytotoxicity,[3]; [5],greatly enhanced cytotoxicity
same,TGase-catalyzed oligomerization (transamidation) of β-amyloid1-42,"guinea pig liver TGase; 50 μM MDC, 0.1 μg TGase, 1 μg BA, 500 μM Ca2+, 60 minutes",completely eliminated
same,effect of MDC on β-amyloid1-42 activation of caspases,caspase-3; β-amyloid1-42-treated cells,did not block
same,effect of MDC on β-amyloid1-42 stimulation of c-Jun kinase (JNK) activity,c-Jun kinase (JNK),did not block

# — patent US20070123462A1, “Effects of tissue transglutaminase on beta-amyloid-induced apoptosis” (Cornell Research Foundation, Inc., priority 2005, published 2007)
